Assay results: US20220175777A1, “Inhibitors of Multidrug Resistance Transporter P-Glycoprotein” (Southern Methodist University, priority 2014, published 2022)

Key:
DU145TXR = experiment: Resensitization of DU145TXR to paclitaxel by 29 variants (MTT cell viability); assay type: cell-based, human; details: for Fold vs PTX ÷ 29: compared to parental compound 29; for Fold vs PTX: vs PTX alone
Excerpt: The Group 1 ChemGen/docking routine produced variants of P-gp inhibitor 29 resensitize a multidrug resistant, P-gp overexpressing prostate cancer cell line to paclitaxel. The mitochondrial reduction potential of cells is often used as an indicator for cell viability using MTT assays^40-42. Using these assays it was observed that the five Group 1 derivatives of 29 predicted through the ChemGen/docking routine and synthesized here, 216, 227, 231, 541 and 551, re-sensitized the P-gp overexpressing prostate cancer cell line, DU145TXR^33, to the chemotherapeutic, paclitaxel (FIG. 9, showing results of assays at concentrations of 3 μM, 5 μM, 7 μM, and 10 μM).
Cytotoxicity of the chemotherapeutic, paclitaxel (PTX) to P-gp overexpressing prostate cancer cells, DU145TXR, was determined in the absence and presence of the ChemGen designed 29-variants, 216, 227, 231, 541 and 551. For each experimental compound IC50 values of PTX alone or in the presence of inhibitors, fold improvement of PTX sensitivity in the presence of inhibitor, and fold improvement of PTX sensitivity by variants compared to parental compound 29 are given.

[1] = biological target: Normal Human MDR1 P-glycoprotein (Homo sapiens, UniProt P08183); experiment: ATP hydrolysis by human P-gp assembled into membrane nanodiscs; assay type: biochemical; details: human MDR1 P-gp in nanodiscs
Normal Human MDR1 P-glycoprotein, sequence (P08183 whole entry): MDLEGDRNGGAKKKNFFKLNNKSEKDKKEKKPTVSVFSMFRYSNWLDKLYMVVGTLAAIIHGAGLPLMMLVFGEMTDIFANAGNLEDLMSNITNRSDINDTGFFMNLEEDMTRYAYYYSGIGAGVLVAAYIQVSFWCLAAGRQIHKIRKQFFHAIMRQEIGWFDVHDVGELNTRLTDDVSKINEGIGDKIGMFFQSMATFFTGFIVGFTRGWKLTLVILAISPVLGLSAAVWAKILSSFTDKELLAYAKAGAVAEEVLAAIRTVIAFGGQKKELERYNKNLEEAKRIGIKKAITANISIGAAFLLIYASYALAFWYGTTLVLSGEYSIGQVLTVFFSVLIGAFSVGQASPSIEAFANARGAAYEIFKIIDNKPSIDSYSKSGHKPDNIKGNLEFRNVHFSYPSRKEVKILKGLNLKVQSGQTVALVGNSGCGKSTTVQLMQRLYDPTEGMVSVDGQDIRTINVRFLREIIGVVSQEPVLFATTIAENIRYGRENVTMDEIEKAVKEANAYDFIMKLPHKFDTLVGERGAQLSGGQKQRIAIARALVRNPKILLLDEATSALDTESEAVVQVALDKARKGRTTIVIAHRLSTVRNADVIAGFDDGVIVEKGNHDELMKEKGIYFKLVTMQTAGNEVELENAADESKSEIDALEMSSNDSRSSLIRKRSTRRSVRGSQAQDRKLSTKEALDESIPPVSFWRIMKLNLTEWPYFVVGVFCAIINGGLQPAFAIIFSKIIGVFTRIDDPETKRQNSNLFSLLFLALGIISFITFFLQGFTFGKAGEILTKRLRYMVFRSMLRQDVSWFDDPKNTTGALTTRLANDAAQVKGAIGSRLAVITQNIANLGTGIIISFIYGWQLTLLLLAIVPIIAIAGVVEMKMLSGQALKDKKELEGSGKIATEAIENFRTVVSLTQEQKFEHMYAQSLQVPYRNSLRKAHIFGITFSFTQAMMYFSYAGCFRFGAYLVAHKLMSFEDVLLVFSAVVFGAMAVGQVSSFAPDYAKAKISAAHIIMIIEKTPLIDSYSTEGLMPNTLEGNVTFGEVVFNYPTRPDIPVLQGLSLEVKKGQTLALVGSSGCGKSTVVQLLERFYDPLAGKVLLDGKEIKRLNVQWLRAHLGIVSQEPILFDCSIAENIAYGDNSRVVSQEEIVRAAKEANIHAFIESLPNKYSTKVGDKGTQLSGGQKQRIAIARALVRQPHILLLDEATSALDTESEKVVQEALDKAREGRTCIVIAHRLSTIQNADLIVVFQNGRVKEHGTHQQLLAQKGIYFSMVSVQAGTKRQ
Excerpt: To assess whether the observed discrepancies of compounds stimulating basal P-gp ATPase activity but not being transport substrates of the human pump in the cell culture assessments were due to the fact that these biochemical assays used a cysteineless variant of the mouse MDR3 P-glycoprotein, the experiments were repeated using normal human MDR1 P-gp. In order to stabilize the human protein for the activity assays, the protein was assembled into membrane nanodiscs as described herein.

[2] = biological target: T1, Cysteineless Mouse MDR3 P-glycoprotein (Mus musculus, UniProt P21447, C1070A/C1121A/C1223A/C133A/C427A/C638A/C669A/C713A/C952A); experiment: ATP hydrolysis by purified P-glycoprotein, basal and verapamil-stimulated; assay type: biochemical; details: for Effect on stimulated ATPase / Stimulated ATPase (% of DMSO): in the presence of verapamil; for Stimulated ATPase (% of DMSO) / Basal ATPase (% of DMSO): ± standard deviation; for Effect on basal ATPase / Basal ATPase (% of DMSO): without added transport substrate
T1 construct: made in house; host or cells: Pichia pastoris
T1 sequence (P21447 whole entry C133A/C427A/C638A/C669A/C713A/C952A/C1070A/C1121A/C1223A): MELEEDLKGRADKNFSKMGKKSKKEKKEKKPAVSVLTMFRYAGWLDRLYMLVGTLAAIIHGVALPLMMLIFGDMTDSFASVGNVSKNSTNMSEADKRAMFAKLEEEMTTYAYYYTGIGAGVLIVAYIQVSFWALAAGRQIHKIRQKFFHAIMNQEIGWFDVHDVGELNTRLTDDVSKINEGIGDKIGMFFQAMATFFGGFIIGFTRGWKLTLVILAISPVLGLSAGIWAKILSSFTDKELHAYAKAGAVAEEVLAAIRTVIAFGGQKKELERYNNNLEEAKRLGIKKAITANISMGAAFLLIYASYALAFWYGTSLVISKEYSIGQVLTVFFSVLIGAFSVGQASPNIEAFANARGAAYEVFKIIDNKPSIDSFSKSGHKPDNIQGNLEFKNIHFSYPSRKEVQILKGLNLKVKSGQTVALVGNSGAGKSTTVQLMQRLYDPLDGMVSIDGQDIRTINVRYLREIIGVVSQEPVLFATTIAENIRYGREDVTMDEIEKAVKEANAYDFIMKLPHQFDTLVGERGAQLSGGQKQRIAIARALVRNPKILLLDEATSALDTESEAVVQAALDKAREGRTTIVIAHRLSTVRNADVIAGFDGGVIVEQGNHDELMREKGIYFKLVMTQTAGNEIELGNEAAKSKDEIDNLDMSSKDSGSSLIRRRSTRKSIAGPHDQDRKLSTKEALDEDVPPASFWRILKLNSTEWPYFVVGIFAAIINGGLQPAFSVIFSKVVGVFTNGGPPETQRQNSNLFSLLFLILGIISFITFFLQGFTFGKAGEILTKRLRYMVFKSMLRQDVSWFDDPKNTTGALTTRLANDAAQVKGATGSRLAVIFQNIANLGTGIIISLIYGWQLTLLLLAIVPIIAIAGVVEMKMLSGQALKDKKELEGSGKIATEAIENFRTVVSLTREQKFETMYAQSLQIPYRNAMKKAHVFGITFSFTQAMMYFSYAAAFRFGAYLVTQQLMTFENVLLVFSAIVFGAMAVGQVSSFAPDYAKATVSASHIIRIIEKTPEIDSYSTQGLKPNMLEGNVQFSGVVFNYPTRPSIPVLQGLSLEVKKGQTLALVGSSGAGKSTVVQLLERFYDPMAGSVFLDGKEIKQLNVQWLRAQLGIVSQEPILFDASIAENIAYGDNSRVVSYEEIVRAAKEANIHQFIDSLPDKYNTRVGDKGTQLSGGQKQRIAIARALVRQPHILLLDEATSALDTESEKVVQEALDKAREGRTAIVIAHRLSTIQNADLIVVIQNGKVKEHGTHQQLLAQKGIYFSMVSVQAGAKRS
Excerpt: The efficacy of molecules identified using in silico methods to function as potential inhibitors of P-glycoprotein was initially tested with regard to their capability to inhibit ATP hydrolysis by purified P-glycoprotein. For this purpose, a well-established activity assay for ATP hydrolyzing enzymes that uses the oxidation of NADH to NAD+ through coupling the reactions of pyruvate kinase and lactate dehydrogenase to the hydrolysis of ATP was adapted to medium throughput conditions on 96 well plates. […] In this set-up, the effects of potential small molecule inhibitors on the ATP hydrolysis activity of P-glycoprotein were tested in duplicate or triplicate and were repeated at least two times using different enzyme preparations.
The P-glycoprotein used in these assays was a close relative of the human P-glycoprotein that is found in mice. A mutant version of the mouse P-glycoprotein where all intrinsic cysteine amino acids had been replaced by alanine residues was recombinantly expressed in the yeast Pichia pastoris and used for these initial tests. […] Prior to testing the ATP-hydrolysis activity, P-glycoprotein was incubated with phosphatidyl choline for stabilization of the enzyme during the assay.
Different concentrations of the to-be-tested small molecules were added and pre-incubated at 37° C. The ATP hydrolysis reaction was then started by adding equal volume of double concentrated ATPase cocktail. The final ATP concentration in the reaction was 2 mM. The reaction was allowed to proceed for 20 minutes, the rate of ATP hydrolysis was calculated using the molar extinction coefficient of NADH, and the one-to-one relationship of ATP hydrolyzed and NADH oxidized.
Evaluation of mode of inhibition of P-glycoprotein by Group 1 and Group 2 variants of compound 29. To assess the mode of inhibition of P-gp by the novel variants of P-gp inhibitor 29, ATP hydrolysis by P-gp was evaluated in the presence or absence of the variants. […] Murine P-gp (MDR3) expressed in Pichia pastoris that had all naturally occurring cysteines replaced with alanine, was used^45, 46. It is widely assumed that the ATP hydrolytic rate of P-gp is stimulated in the presence of transport substrates when compared to ATP hydrolysis in the absence of transport substrates. Assays comparing these rates can therefore be useful not only in identifying inhibitors of P-gp catalyzed ATP hydrolysis, but also to potentially infer whether a compound might be a transport substrate if basal ATPase rates are stimulated by the addition of a compound.

[3] = biological target: T1, Cysteineless Mouse MDR3 P-glycoprotein; experiment: SL-ATP binding to P-gp by ESR spectroscopy; details: for Maximum ATP binding mol SL-ANP bound/mol P-gp: SL-ATP titration in presence of compound
Excerpt: Determination of the possible mode of ATP hydrolysis inhibition by the identified P-glycoprotein inhibitors. The mode of hydrolysis of ATP by P-glycoprotein was investigated by measuring the maximal binding stoichiometry and binding affinity of an analog of ATP, SL-ATP, and by Electron Spin Resonance (ESR) spectroscopy, similar to in both the presence and absence of the identified inhibitors.
The high-field signal of the freely mobile, unbound SL-ATP is compared and is used to calculate the amount of ATP-analog bound to P-glycoprotein. Binding of SL-ATP in the absence of any P-glycoprotein inhibitor saturated at about 2 mol of SL-nucleotide bounds per mol of P-glycoprotein.
FIGS. 2A-2D are plots showing the effects of P-glycoprotein ATP hydrolysis inhibitors on nucleotide binding. Between 30 and 50 microM Pgp were incubated with 50 microM inhibitor compound. Increasing amounts of SL-ATP were added. The ESR signal of the free SL-ATP in the presence of P-glycoprotein and inhibitor was compared to that in the absence of P-glycoprotein. The graphs represent at least 3 individual studies each using 3 to 5 different P-glycoprotein preparations.

P-gp = P-gp (Homo sapiens, UniProt P08183); details: for Transport substrate for P-gp: not told
P-gp, sequence (P08183 whole entry): as the sequence (P08183 whole entry) above
Procedure: Stimulation of basal ATPase by 29-variants was used as an indicator that a compound may be a P-gp transport substrate. Effects on stimulated P-gp ATPase activity indicated whether a compound directly interfered with ATP usage by the protein (***, p<0.001; **, p<0.01; *, p<0.1; NS, not significant). Quantitative cellular accumulation of 29-variants was performed using LC-MS/MS and is presented as a ratio of the cellular amounts of 29-variants in the presence of P-gp inhibitor, tariquidar, divided by amounts accumulated in its absence. […] Binding of an ATP analog, SL-ATP, to P-gp was used to determine whether ATP binding to P-gp was affected by the 29-variants. Values+/−standard deviations are shown for at least three different P-gp preparations and three independent SL-ATP titration experiments. The values for SL-ATP binding in the presence of 29 were taken directly from Brewer et al. (2014).
Intracellular accumulation of compound 29 variants. Cell accumulation assays for each of the 29 variants were performed as in reference^28 to more directly assess whether the compounds were indeed transport substrates for P-gp.

[4] = test system: P-gp overexpressing DU145TXR cells; experiment: Calcein AM accumulation assay; assay type: cell-based, human
Procedure: Accumulation and cellular retention of calcein AM in P-gp overexpressing prostate cancer cells upon incubation with Group 1 SMU-29 variants. Calcein AM accumulation assays have been used by us previously to evaluate P-gp-substrate accumulation in real time in the presence or absence of P-gp inhibitors^28. For these assays, P-gp overexpressing DU145TXR cells were incubated with the respective inhibitors in the presence of the P-gp substrate, calcein AM. Inhibition of P-gp leads to cellular accumulation of calcein AM and to cleavage of its acetoxymethyl ester groups, resulting in the generation of the highly fluorescent compound, calcein. The anionic calcein is not a substrate of P-gp and remains in the cells. In these assays, the relative fluorescence of cellular calcein was measured over time and the results of these assays are shown in FIG. 10A.
The inventors determined if preferential partitioning of variants in the hydrophobic part of the cell membrane may keep them more distant from the putative allosteric site on P-gp which is located adjacent to the membrane in the cytoplasm, therefore potentially slowing the inhibitory effect of the compounds.

Row | Structure (SMILES) | Fold vs PTX ÷ 29 (DU145TXR; 5 μM inhibitor) | Fold vs PTX (DU145TXR; 5 μM inhibitor) | Fold vs PTX ÷ 29 (DU145TXR; 7 μM inhibitor) | Fold vs PTX (DU145TXR; 7 μM inhibitor) | Fold vs PTX ÷ 29 (DU145TXR; 10 μM inhibitor) | Fold vs PTX (DU145TXR; 10 μM inhibitor) | Basal ATPase (% of DMSO) [1] | Stimulated ATPase (% of DMSO) [1] | Stimulated ATPase (% of DMSO) [2] | Basal ATPase (% of DMSO) [2] | Maximum ATP binding mol SL-ANP bound/mol P-gp [3] | Transport substrate for P-gp (P-gp) | also measured
1 | Cc1cc(C)c(-c2cc(NC(=O)CSCC(=O)c3ccc4c(c3)Cc3ccccc3-4)n(-c3ccccc3)n2)cc1C [SMU29-216] | 1.3 Fold | 14 Fold | 1 Fold | 34 Fold | 0.4 Fold | 37 Fold | 69 ± 8 % of DMSO | 64 ± 6 % of DMSO | 108 ± 2 % of DMSO | 105 ± 7 % of DMSO | 1.7 ± 0.1 mol SL-ANP bound/mol P-gp | no | Effect on basal ATPase [1]: inhibitor; Effect on stimulated ATPase [1]: inhibitor; Effect on stimulated ATPase [2]: none; Effect on stimulated ATPase ([2]; listed as 216): did not affect; Effect on basal ATPase [2]: none; Effect on basal ATPase ([2]; listed as 216): did not significantly affect; Effect on SL-ANP binding [3]: no; Cellular accumulation: ratio of plus Tariquidar over no Tariquidar (P-gp): 1.1
2 | Cc1cc(C)c(-c2cc(NC(=O)CSc3cccc(NC(=O)c4cncc(Br)c4)c3)n(-c3ccccc3)n2)cc1C [SMU29-551, 5-bromo-N-(3-((2-oxo-2-((1-phenyl-3-(2,4,5-trimethylphenyl)-1H-pyrazol-5-yl)amino)ethyl)thio)phenyl)nicotinamide] | 9.7 Fold | 106 Fold | 6.6 Fold | 236 Fold | 3.5 Fold | 353 Fold | 72 ± 9 % of DMSO | 27 ± 1 % of DMSO | 62 ± 5 % of DMSO | 150 ± 6 % of DMSO | 1.7 ± 0.1 mol SL-ANP bound/mol P-gp | – | Cellular calcein accumulation relative to parental compound 29 ([4]; after 6-hour pre-incubation): equivalent to 29; Cellular calcein accumulation relative to parental compound 29 ([4]; no preincubation): marginally higher calcein accumulation than parental compound 29
3 | Cc1cc(C)c(-c2cc(NC(=O)CSCC(=O)NCc3ccc(F)cc3)n(-c3ccccc3)n2)cc1C [SMU29-286] | – | – | – | – | – | – | 95 ± 3 % of DMSO | 59 ± 4 % of DMSO | 98 ± 2 % of DMSO | 143 ± 32 % of DMSO | 1.9 ± 0.1 mol SL-ANP bound/mol P-gp | very likely to be transport substrates | Effect on basal ATPase ([2]; listed as 286): stimulated basal ATPase only marginally or with no statistical significance; Intracellular accumulation in the presence versus absence of TQR (P-gp): more modest, but statistically significant increases
